From patent publication US10538498B2, “1,3,4-oxadiazole sulfonamide derivative compounds as histone deacetylase 6 inhibitor, and the pharmaceutical composition comprising the same” (Chong Kun Dang Pharmaceutical Corp., priority 2015, dated 2020)

Assays:
human recombinant HDAC1 = molecular target: T1, human recombinant HDAC1 (Homo sapiens, UniProt Q13547); test: HDAC1 enzyme activity inhibition assay (HDAC Fluorimetric Drug Discovery Kit); assay type: biochemical; settings: 0.3 μg enzyme, 10 μM substrate, 30° C., 60 minutes
T1 construct: purchased Enzo Life Science BML-SE456
Description: In order to examine the HDAC6 selectivity of the compounds of formula I of the present invention by HDAC1 and HDAC6 enzymatic activity inhibition assays, an experiment was performed using a conventional substance as a control.
HDAC enzyme activity was measured using a HDAC Fluorimetric Drug Discovery Kit (BML-AK511, 516, Enzo Life Science). For the HDAC1 enzyme activity test, human recombinant HDAC1 (BML-SE456) was used as an enzyme source, and Fluor de Lys®-“SIRT1 (BNL-KI177) was used as a substrate. A 5-fold dilution of the compound was seeded into a 96-well plate, and then 0.3 μg of the enzyme and 10 μM of the substrate were added to each well of the plate and allowed to react at 30° C. for 60 minutes. Then, Fluor de Lys®-Developer II (BML-KI176) was added thereto and allowed to react for 30 minutes, after which the fluorescence value (Ex 360, Em 460) was measured using a multi-plate reader (Flexstation 3, Molecular Device). The HDAC6 enzyme was tested using human recombinant HDAC6 (382180) (Calbiochem) according to the same protocol as the HDAC1 enzyme activity test method. Based on the resulting values, each IC50 value was calculated using GraphPad Prism4.0 program.

human recombinant HDAC6 = molecular target: T2, human recombinant HDAC6 (Homo sapiens, UniProt Q9UBN7); test: HDAC6 enzyme activity inhibition assay (HDAC Fluorimetric Drug Discovery Kit); assay type: biochemical; settings: for HDAC6 selectivity (fold): HDAC1 vs HDAC6; for IC50: same protocol as the HDAC1 enzyme activity test
T2 construct: purchased Calbiochem 382180
T2 sequence (Q9UBN7 1-1215): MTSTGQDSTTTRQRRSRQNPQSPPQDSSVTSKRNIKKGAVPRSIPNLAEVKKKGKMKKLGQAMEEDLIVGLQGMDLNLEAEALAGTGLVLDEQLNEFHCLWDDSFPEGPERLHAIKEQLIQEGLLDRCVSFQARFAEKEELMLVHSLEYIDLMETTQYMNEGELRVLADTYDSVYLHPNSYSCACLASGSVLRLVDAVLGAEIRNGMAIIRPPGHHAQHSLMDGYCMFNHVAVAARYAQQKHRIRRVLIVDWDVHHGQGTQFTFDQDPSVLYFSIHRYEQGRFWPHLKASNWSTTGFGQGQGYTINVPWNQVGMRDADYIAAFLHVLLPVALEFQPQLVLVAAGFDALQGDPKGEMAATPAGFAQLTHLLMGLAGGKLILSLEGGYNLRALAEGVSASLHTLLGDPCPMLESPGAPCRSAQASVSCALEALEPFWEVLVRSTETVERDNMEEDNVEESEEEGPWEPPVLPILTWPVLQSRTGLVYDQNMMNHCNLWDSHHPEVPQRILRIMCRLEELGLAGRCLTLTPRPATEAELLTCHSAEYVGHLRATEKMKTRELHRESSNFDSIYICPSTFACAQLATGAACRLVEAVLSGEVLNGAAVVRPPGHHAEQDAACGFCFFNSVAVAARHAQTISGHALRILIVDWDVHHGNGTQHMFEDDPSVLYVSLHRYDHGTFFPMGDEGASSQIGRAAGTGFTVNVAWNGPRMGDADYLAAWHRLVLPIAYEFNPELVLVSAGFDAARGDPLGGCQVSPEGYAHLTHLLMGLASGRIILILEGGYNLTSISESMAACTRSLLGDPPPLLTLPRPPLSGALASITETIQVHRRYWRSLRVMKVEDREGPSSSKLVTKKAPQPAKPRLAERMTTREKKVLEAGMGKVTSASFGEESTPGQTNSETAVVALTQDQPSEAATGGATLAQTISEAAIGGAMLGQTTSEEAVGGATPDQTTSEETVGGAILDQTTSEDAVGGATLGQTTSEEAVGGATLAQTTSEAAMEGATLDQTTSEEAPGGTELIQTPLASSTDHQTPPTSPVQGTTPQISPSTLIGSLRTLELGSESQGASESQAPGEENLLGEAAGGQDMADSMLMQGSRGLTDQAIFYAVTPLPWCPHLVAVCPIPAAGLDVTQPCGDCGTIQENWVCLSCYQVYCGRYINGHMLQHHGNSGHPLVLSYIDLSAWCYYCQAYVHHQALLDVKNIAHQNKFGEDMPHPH
In short: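 First, compound in 5-fold dilution steps is combined with 0.3 μg enzyme and 10 μM Fluor de Lys-SIRT1 substrate. After 60 min at 30° C, developer is added for 30 min. Fluorescence at Ex 360/Em 460 then gives IC50 values.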

T1 sequence (Q13547 whole entry): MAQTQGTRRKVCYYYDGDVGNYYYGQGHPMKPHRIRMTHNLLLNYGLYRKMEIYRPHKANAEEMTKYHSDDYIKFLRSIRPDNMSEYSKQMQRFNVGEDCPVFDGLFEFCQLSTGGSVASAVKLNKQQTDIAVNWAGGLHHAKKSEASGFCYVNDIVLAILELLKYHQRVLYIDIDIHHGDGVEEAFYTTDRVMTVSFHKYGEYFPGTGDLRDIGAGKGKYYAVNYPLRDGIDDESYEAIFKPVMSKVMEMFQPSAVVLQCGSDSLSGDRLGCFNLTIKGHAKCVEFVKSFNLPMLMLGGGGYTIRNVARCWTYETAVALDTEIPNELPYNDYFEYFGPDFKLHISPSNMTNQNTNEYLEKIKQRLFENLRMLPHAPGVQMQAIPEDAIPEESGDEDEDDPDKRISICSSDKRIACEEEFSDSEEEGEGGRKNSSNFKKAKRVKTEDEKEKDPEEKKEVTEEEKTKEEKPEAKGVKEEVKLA

CS(=O)(=O)N(Cc1ccc(-c2nnc(C(F)(F)F)o2)cc1F)c1ccc2c(c1)OCO2 [Compound 11226, N-(benzo[d][1,3]dioxol-5-yl)-N-(2-fluoro-4-(5-(trifluoromethyl)-1,3,4-oxadiazol-2-yl)benzyl)methanesulfonamide]
IC50 (human recombinant HDAC1): 11.6 µM
HDAC6 selectivity (fold) (human recombinant HDAC6): 297 fold
IC50 (human recombinant HDAC6): 39 nM

CCS(=O)(=O)N(Cc1ccc(-c2nnc(C(F)(F)F)o2)cn1)c1ccc(F)c(Cl)c1 [Compound 11429, N-(3-chloro-4-fluorophenyl)-N-((5-(5-(trifluoromethyl)-1,3,4-oxadiazol-2-yl)pyridin-2-yl)methyl)ethanesulfonamide]
IC50 (human recombinant HDAC1): 18.7 µM
HDAC6 selectivity (fold) (human recombinant HDAC6): 288 fold
IC50 (human recombinant HDAC6): 65 nM

CCS(=O)(=O)N(Cc1ccc(-c2nnc(C(F)(F)F)o2)cn1)c1ccccc1 [Compound 11430, N-phenyl-N-((5-(5-(trifluoromethyl)-1,3,4-oxadiazol-2-yl)pyridin-2-yl)methyl)ethanesulfonamide]
IC50 (human recombinant HDAC1): 22.2 µM
HDAC6 selectivity (fold) (human recombinant HDAC6): 529 fold
IC50 (human recombinant HDAC6): 42 nM

O=S(=O)(C1CCOCC1)N(Cc1ccc(-c2nnc(C(F)(F)F)o2)cn1)c1ccccc1 [Compound 11431, N-phenyl-N-((5-(5-(trifluoromethyl)-1,3,4-oxadiazol-2-yl)pyridin-2-yl)methyl)tetrahydro-2H-pyran-4-sulfonamide]
IC50 (human recombinant HDAC1): 28.1 µM
HDAC6 selectivity (fold) (human recombinant HDAC6): 453 fold
IC50 (human recombinant HDAC6): 62 nM

CS(=O)(=O)N(Cc1ccc(-c2nnc(C(F)(F)F)o2)cn1)c1ccc(F)c(Cl)c1 [Compound 11432, N-(3-chloro-4-fluorophenyl)-N-((5-(5-(trifluoromethyl)-1,3,4-oxadiazol-2-yl)pyridin-2-yl)methyl)methanesulfonamide]
IC50 (human recombinant HDAC1): 16.5 µM
HDAC6 selectivity (fold) (human recombinant HDAC6): 271 fold
IC50 (human recombinant HDAC6): 61 nM

CN1CC(N2CCC(S(=O)(=O)N(Cc3ccc(-c4nnc(C(F)F)o4)cc3F)c3ccc(F)c(Cl)c3)CC2)C1 [Compound 11451, N-(3-chloro-4-fluorophenyl)-N-(4-(5-(difluoromethyl)-1,3,4-oxadiazol-2-yl)-2-fluorobenzyl)-1-(1-methylazetidin-3-yl)piperidine-4-sulfonamide]
IC50 (human recombinant HDAC1): 27.2 µM
HDAC6 selectivity (fold) (human recombinant HDAC6): 3018 fold
IC50 (human recombinant HDAC6): 9 nM

O=C(CO)N1CC(N2CCC(S(=O)(=O)N(Cc3ccc(-c4nnc(C(F)F)o4)cc3F)c3ccc(F)c(Cl)c3)CC2)C1 [Compound 11452, N-(3-chloro-4-fluorophenyl)-N-(4-(5-(difluoromethyl)-1,3,4-oxadiazol-2-yl)-2-fluorobenzyl)-1-(1-(2-hydroxyacetyl)azetidin-3-yl)piperidine-4-sulfonamide]
IC50 (human recombinant HDAC1): 27.5 µM
HDAC6 selectivity (fold) (human recombinant HDAC6): 3439 fold
IC50 (human recombinant HDAC6): 8 nM

CCS(=O)(=O)N(Cc1ccc(-c2nnc(C(F)F)o2)cn1)c1ccc(C)c(F)c1 [Compound 11460, N-((5-(5-(difluoromethyl)-1,3,4-oxadiazol-2-yl)pyridin-2-yl)methyl)-N-(3-fluoro-4-methylphenyl)ethanesulfonamide]
IC50 (human recombinant HDAC1): 27.3 µM
HDAC6 selectivity (fold) (human recombinant HDAC6): 2727 fold
IC50 (human recombinant HDAC6): 10 nM

CCS(=O)(=O)N(Cc1ccc(-c2nnc(C(F)F)o2)cn1)c1ccc(F)c(C)c1 [Compound 11461, N-((5-(5-(difluoromethyl)-1,3,4-oxadiazol-2-yl)pyridin-2-yl)methyl)-N-(4-fluoro-3-methylphenyl)ethanesulfonamide]
IC50 (human recombinant HDAC1): 27.7 µM
HDAC6 selectivity (fold) (human recombinant HDAC6): 2769 fold
IC50 (human recombinant HDAC6): 10 nM

CCS(=O)(=O)N(Cc1ccc(-c2nnc(C(F)F)o2)cn1)c1ccc(F)c(F)c1 [Compound 11462, N-((5-(5-(difluoromethyl)-1,3,4-oxadiazol-2-yl)pyridin-2-yl)methyl)-N-(3,4-difluorophenyl)ethanesulfonamide]
IC50 (human recombinant HDAC1): 21.1 µM
HDAC6 selectivity (fold) (human recombinant HDAC6): 2635 fold
IC50 (human recombinant HDAC6): 8 nM

CCS(=O)(=O)N(Cc1ccc(-c2nnc(C(F)F)o2)cn1)c1cc(F)cc(F)c1 [Compound 11463, N-((5-(5-(difluoromethyl)-1,3,4-oxadiazol-2-yl)pyridin-2-yl)methyl)-N-(3,5-difluorophenyl)ethanesulfonamide]
IC50 (human recombinant HDAC1): 22.3 µM
HDAC6 selectivity (fold) (human recombinant HDAC6): 2789 fold
IC50 (human recombinant HDAC6): 8 nM

O=S1(=O)CCC(S(=O)(=O)N(Cc2ccc(-c3nnc(C(F)F)o3)cn2)c2ccc(F)c(Cl)c2)CC1 [Compound 11497, N-(3-chloro-4-fluorophenyl)-N-((5-(5-(difluoromethyl)-1,3,4-oxadiazol-2-yl)pyridin-2-yl)methyl)tetrahydro-2H-thiopyran-4-sulfonamide 1,1-dioxide]
IC50 (human recombinant HDAC1): 21.8 µM
HDAC6 selectivity (fold) (human recombinant HDAC6): 2727 fold
IC50 (human recombinant HDAC6): 8 nM

O=S(=O)(C1CCN(C2COC2)CC1)N(Cc1ccc(-c2nnc(C(F)F)o2)cn1)c1ccc(F)c(Cl)c1 [Compound 11501, N-(3-chloro-4-fluorophenyl)-N-((5-(5-(difluoromethyl)-1,3,4-oxadiazol-2-yl)pyridin-2-yl)methyl)-1-(oxetan-3-yl)piperidine-4-sulfonamide]
IC50 (human recombinant HDAC1): 56.7 µM
HDAC6 selectivity (fold) (human recombinant HDAC6): 3779 fold
IC50 (human recombinant HDAC6): 15 nM

CC(=O)N1CC(N2CCC(S(=O)(=O)N(Cc3ccc(-c4nnc(C(F)F)o4)cn3)c3ccc(F)c(Cl)c3)CC2)C1 [Compound 11502, 1-(1-acetylazetidin-3-yl)-N-(3-chloro-4-fluorophenyl)-N-((5-(5-(difluoromethyl)-1,3,4-oxadiazol-2-yl)pyridin-2-yl)methyl)piperidine-4-sulfonamide]
IC50 (human recombinant HDAC1): 78.1 µM
HDAC6 selectivity (fold) (human recombinant HDAC6): 5579 fold
IC50 (human recombinant HDAC6): 14 nM

CS(=O)(=O)N1CC(N2CCC(S(=O)(=O)N(Cc3ccc(-c4nnc(C(F)F)o4)cn3)c3ccc(F)c(Cl)c3)CC2)C1 [Compound 11503, N-(3-chloro-4-fluorophenyl)-N-((5-(5-(difluoromethyl)-1,3,4-oxadiazol-2-yl)pyridin-2-yl)methyl)-1-(1-(methylsulfonyl)azetidin-3-yl)piperidine-4-sulfonamide]
IC50 (human recombinant HDAC1): 71.9 µM
HDAC6 selectivity (fold) (human recombinant HDAC6): 4792 fold
IC50 (human recombinant HDAC6): 15 nM

CCS(=O)(=O)N(Cc1ccc(-c2nnc(C(F)F)o2)cn1)c1ccc(Cl)c(C)c1 [Compound 11504, N-(4-chloro-3-methylphenyl)-N-((5-(5-(difluoromethyl)-1,3,4-oxadiazol-2-yl)pyridin-2-yl)methyl)ethanesulfonamide]
IC50 (human recombinant HDAC1): 86.2 µM
HDAC6 selectivity (fold) (human recombinant HDAC6): 4790 fold
IC50 (human recombinant HDAC6): 18 nM

CCS(=O)(=O)N(Cc1ccc(-c2nnc(C(F)F)o2)cn1)c1ccc(C)c(Cl)c1 [Compound 11505, N-(3-chloro-4-methylphenyl)-N-((5-(5-(difluoromethyl)-1,3,4-oxadiazol-2-yl)pyridin-2-yl)methyl)ethanesulfonamide]
IC50 (human recombinant HDAC1): 60.4 µM
HDAC6 selectivity (fold) (human recombinant HDAC6): 4646 fold
IC50 (human recombinant HDAC6): 13 nM

CCS(=O)(=O)N(Cc1ccc(-c2nnc(C(F)F)o2)cn1)c1cc(Cl)cc(Cl)c1 [Compound 11506, N-(3,5-dichlorophenyl)-N-((5-(5-(difluoromethyl)-1,3,4-oxadiazol-2-yl)pyridin-2-yl)methyl)ethanesulfonamide]
IC50 (human recombinant HDAC1): 59.7 µM
HDAC6 selectivity (fold) (human recombinant HDAC6): 4977 fold
IC50 (human recombinant HDAC6): 12 nM
